Legend:
[1] = biological target: Kes1 (Kes1/Osh4) (Saccharomyces cerevisiae, UniProt P35844, K242E/K243E/R236E); experiment: [3H]-cholesterol saturation binding, sterol:detergent micelle assay
[2] = biological target: Kes1 (Kes1/Osh4) (Saccharomyces cerevisiae, UniProt P35844); experiment: as above

CC(C)CCC[C@@H](C)[C@H]1CC[C@H]2[C@@H]3CC=C4C[C@@H](O)CC[C@]4(C)[C@H]3CC[C@]12C [[^3H]-Cholesterol]
Kd [1]: 500 to 800 nM
Kd [2]: 500 to 800 nM
